How the values were obtained:
[1] = test system: culture isolated from the slime; experiment: The effect of the antagonistic and the dispersing agent on the formation of the deposit; format: cell-based; details: after 7 days
Description: Cultures which are isolated from the slime are cultivated in a NB cultivation liquid for 21-24 hours. Then, 1 mL culture liquids of the isolated cultures are centrifuged in 15000 rpm for 1 min and the supernatants thereof are removed. All the isolated cultures are re-suspended by adding 1 mL sterile water, and then each re-suspended culture is inoculated into a flask which already contains sterile white water 100 mL and 3 g LBKP pulp. Later, different dispersing agents are added into different flasks of each kind of culture to obtain different mixtures. The mixtures are cultivated in an incubate shaker at 40° C. 70 rpm. After being mixture cultivated for 3 hours, 3 mL antagonistic C5 (Streptomyces bikiniensis) which has been amounted to 10^7/mL after being cultivated for 24 hours is added thereinto to obtain another mixture. The mixture are cultivated in the incubate shaker again at 40° C., 70 rpm. After 7 days, the production of the deposit is recorded. The whole experiment is separated into six groups. […] There are four experimental group: 3: Only incubate the culture isolated from the slime without incubating the antagonistic C5; 4: Incubate both the culture isolated from the slime and the antagonistic C5; 5: Incubate the culture isolated from the slime and the dispersing agent; and 6: Incubate the culture isolated from the slime, the dispersing agent, and the antagonistic C5. The groups described above are double checked and all experiments are repeated at least once. Deposit % is calculated by the formula as follows: [formula]

[2] = test system: culture isolated from the slime; experiment: The track experiment of periodically adding the antagonistic; format: cell-based
Description: Cultures which are isolated from the slime are cultivated in a NB cultivation liquid for 21-24 hours. Then, 1 mL culture liquids of the isolated cultures are centrifuged in 15000 rpm for 1 min and the supernatants thereof are removed. All the isolated cultures are re-suspended by adding 1 mL sterile water, and then each re-suspended culture is inoculated into a flask which already contains sterile white water 100 mL and 3 g LBKP pulp. Later, different dispersing agents are added into different flasks of each kind of culture to obtain different mixtures. The mixtures are cultivated in an incubate shaker at 40° C. 70 rpm. After being mixture cultivated for 3 hours, 3 mL antagonistic C5 (Streptomyces bikiniensis) which has been amounted to 10^7/L after being cultivated for 24 hours is added thereinto to obtain another mixture. The mixture are cultivated in the incubate shaker again at 40° C. 70 rpm. […] Then, the final deposit amount after another 7 days (total 14 days) is also recorded. The whole experiment is separated into four groups. […] There are two experimental group: 3: Only incubate the culture isolated from the slime without incubating the antagonistic C5; and 4: Incubate both the culture isolated from the slime and the antagonistic C5. The groups described above are double checked and all experiments are repeated at least once. Deposit % is calculated by the formula as follows: [formula]

[3] = isolated culture in sterile white water 100 mL + 3 g LBKP pulp, 40° C. 70 rpm, culture isolated from slime alone = 100%
[4] = contrast group: only antagonistic C5, without the culture isolated from the slime

Row | Substance | Deposit (%) of the slime [1, 3] | Deposit % (Day 7) [2, 4] | Deposit % (Day 14) [2, 4] | Deposit % (Day 14) ([2]; culture isolated from slime + antagonistic C5, antagonistic C5 re-added at Day 7) | Deposit % (Day 14) ([2]; culture isolated from slime + antagonistic C5 added once, not re-added, culture alone = 100%) | Deposit % (Day 7) ([2]; culture isolated from slime + antagonistic C5 added once, culture alone = 100%) | Deposit (%) of the slime [1, 4]
1 | Di-alkyl sulfosuccinate [dispersing agent S100] | 53% | – | – | – | – | – | –
2 | Streptomyces bikiniensis [Antagonistic C5] | 53.0% | 31.0% | 35.0% | 28% | 87% | 29% | 24.7%

From patent publication US20040074621A1, “Method for reducing slime production and mixture making the same” (Yuen Foong Yu Paper MFG Co., Ltd., priority 2002, published 2004)
